In patent publication US6358885B1, “Substituted phenylheterocyclic herbicides” (Mississippi State University, priority 1992, dated 2002):

Key:
blackgrass [1] = assay: Test B preemergence/postemergence greenhouse plant response rating 0 to 10; assay type: in vivo, Alopecurus myosuroides; conditions: for Plant response rating, Blackgrass: 0 to 10 scale
Outline: (§1)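 Test chemicals, dissolved in a non-phytotoxic solvent, were applied to soil at planting and, at the same time, over foliage of seedlings at the one to four leaf stage.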

ryegrass = assay: Test C preemergence/postemergence greenhouse plant response rating 0 to 100; assay type: in vivo, Lolium multiflorum; conditions: for Plant response rating Ryegrass: 0 to 100 scale
Outline: (§2)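 Compounds in non-phytotoxic solvent went onto sandy loam before emergence (seeded one day earlier) or onto plants at the one-to-four leaf stage. Duck salad was treated via flood water (~2.5 cm, maintained) over silt loam.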

pigweed = assay: as above; assay type: in vivo, Amaranthusretroflexus; conditions: for Plant response rating Pigweed: 0 to 100 scale
Outline: as §2

sorghum [2] = assay: as above; assay type: in vivo, Sorghum bicolor; conditions: for Plant response rating, Sorghum: 0 to 100 scale
Outline: as §2

sorghum [3] = assay: Test B preemergence/postemergence greenhouse plant response rating 0 to 10; assay type: in vivo, Sorghum bicolor; conditions: 0 to 10 scale
Outline: as §1

cotton = assay: as above; assay type: in vivo, Gossypium hirsutum; conditions: for Plant response rating, Cotton: 0 to 10 scale
Outline: as §1

wild buckwheat = assay: Test C preemergence/postemergence greenhouse plant response rating 0 to 100; assay type: in vivo, Polygonum convolvulus; conditions: for Plant response rating, Wild buckwheat: 0 to 100 scale
Outline: as §2

sugar beet = assay: as above; assay type: in vivo, Beta vulgaris; conditions: for Plant response rating, Sugar beet: 0 to 100 scale
Outline: as §2

wheat = assay: Test B preemergence/postemergence greenhouse plant response rating 0 to 10; assay type: in vivo, Triticum aestivum; conditions: 0 to 10 scale
Outline: as §1

blackgrass [4] = assay: Test C preemergence/postemergence greenhouse plant response rating 0 to 100; assay type: in vivo, Alopecurus myosuroides; conditions: for Plant response rating, Blackgrass: 0 to 100 scale
Outline: as §2

cheatgrass = assay: Test B preemergence/postemergence greenhouse plant response rating 0 to 10; assay type: in vivo, Bromus secalinus; conditions: for Plant response rating, Cheatgrass: 0 to 10 scale
Outline: as §1

bedstraw [5] = assay: as above; assay type: in vivo, Galium aparine; conditions: for Plant response rating, Bedstraw: 0 to 10 scale
Outline: as §1

barley [6] = assay: Test C preemergence/postemergence greenhouse plant response rating 0 to 100; assay type: in vivo, Hordeum vulgare; conditions: for Plant response rating Barley Igri: 0 to 100 scale
Outline: as §2

barley [7] = assay: Test B preemergence/postemergence greenhouse plant response rating 0 to 10; assay type: in vivo, Hordeum vulgare; conditions: for Plant response rating, Barley: 0 to 10 scale
Outline: as §1

bedstraw [8] = assay: Test C preemergence/postemergence greenhouse plant response rating 0 to 100; assay type: in vivo, Galium aparine; conditions: for Plant response rating, Bedstraw: 0 to 100 scale
Outline: as §2

rice = assay: Test B preemergence/postemergence greenhouse plant response rating 0 to 10; assay type: in vivo, Oryza sativa; conditions: 0 to 10 scale
Outline: as §1

duck salad = assay: Test C flood test plant response rating 0 to 100; assay type: in vivo, Heteranthera limosa; conditions: for Plant response rating Duck salad: flood test species listed under POSTEMERGENCE, 0 to 100 scale
Outline: as §2

rape = assay: Test B preemergence/postemergence greenhouse plant response rating 0 to 10; assay type: in vivo, Brassica napus; conditions: 0 to 10 scale
Outline: as §1

## C#CCOc1cc(-c2nn3c(c2Br)CCCC3)c(F)cc1Cl [Compound 26]
Blackgrass [1]; POSTEMERGENCE, Rate 50 g/ha
  Plant response rating (0 to 10 scale), Blackgrass: 4
Blackgrass [1]; POSTEMERGENCE, Rate 200 g/ha
  Plant response rating, Blackgrass: 5
Blackgrass [1]; PREEMERGENCE, Rate 50 g/ha
  Plant response rating, Blackgrass: 4
Blackgrass [1]; Rate 200 g/ha, PREEMERGENCE
  Plant response rating, Blackgrass: 6
ryegrass; POSTEMERGENCE, 62 g/ha
  Plant response rating Ryegrass: 30
ryegrass; POSTEMERGENCE, 250 g/ha
  Plant response rating Ryegrass: 50
ryegrass; POSTEMERGENCE, Rate 4 g/ha
  Plant response rating (0 to 100), Ryegrass: 20
ryegrass; PREEMERGENCE, 62 g/ha
  Plant response rating Ryegrass: 0
ryegrass; PREEMERGENCE, 250 g/ha
  Plant response rating Ryegrass: 20
ryegrass; PREEMERGENCE, Rate 4 g/ha
  Plant response rating (0 to 100), Ryegrass: 0
ryegrass; Rate 16 g/ha, POSTEMERGENCE
  Plant response rating (0 to 100), Ryegrass: 20
ryegrass; Rate 16 g/ha, PREEMERGENCE
  Plant response rating (0 to 100), Ryegrass: 0
pigweed; POSTEMERGENCE, 62 g/ha
  Plant response rating Pigweed: 100
pigweed; POSTEMERGENCE, 250 g/ha
  Plant response rating Pigweed: 100
pigweed; POSTEMERGENCE, Rate 4 g/ha
  Plant response rating (0 to 100), Pigweed: 100
pigweed; PREEMERGENCE, 62 g/ha
  Plant response rating Pigweed: 100
pigweed; PREEMERGENCE, 250 g/ha
  Plant response rating Pigweed: 100
pigweed; PREEMERGENCE, Rate 4 g/ha
  Plant response rating (0 to 100), Pigweed: 30
pigweed; Rate 16 g/ha, POSTEMERGENCE
  Plant response rating (0 to 100), Pigweed: 100
pigweed; Rate 16 g/ha, PREEMERGENCE
  Plant response rating (0 to 100), Pigweed: 100
Sorghum [2]; POSTEMERGENCE, 62 g/ha
  Plant response rating, Sorghum: 50
Sorghum [2]; POSTEMERGENCE, 250 g/ha
  Plant response rating, Sorghum: 50
Sorghum [2]; POSTEMERGENCE, Rate 4 g/ha
  Plant response rating (0 to 100), Sorghum: 20
Sorghum [2]; PREEMERGENCE, 250 g/ha
  Plant response rating, Sorghum: 50
Sorghum [2]; PREEMERGENCE, Rate 4 g/ha
  Plant response rating (0 to 100), Sorghum: 0
Sorghum [2]; Rate 16 g/ha, POSTEMERGENCE
  Plant response rating (0 to 100), Sorghum: 30
Sorghum [2]; Rate 16 g/ha, PREEMERGENCE
  Plant response rating (0 to 100), Sorghum: 20
Sorghum [3]; POSTEMERGENCE, Rate 50 g/ha
  Plant response rating, Sorghum: 5
Sorghum [3]; POSTEMERGENCE, Rate 200 g/ha
  Plant response rating, Sorghum: 6
Sorghum [3]; PREEMERGENCE, Rate 50 g/ha
  Plant response rating, Sorghum: 2
Sorghum [3]; Rate 200 g/ha, PREEMERGENCE
  Plant response rating, Sorghum: 4
cotton; POSTEMERGENCE, Rate 50 g/ha
  Plant response rating (0 to 10 scale), Cotton: 10
cotton; POSTEMERGENCE, Rate 200 g/ha
  Plant response rating, Cotton: 10
cotton; PREEMERGENCE, Rate 50 g/ha
  Plant response rating, Cotton: 3
cotton; Rate 200 g/ha, PREEMERGENCE
  Plant response rating, Cotton: 9
Wild buckwheat; POSTEMERGENCE, 62 g/ha
  Plant response rating, Wild buckwheat: 100
Wild buckwheat; POSTEMERGENCE, 250 g/ha
  Plant response rating, Wild buckwheat: 100
Wild buckwheat; POSTEMERGENCE, Rate 4 g/ha
  Plant response rating (0 to 100), Wild buckwheat: 50
Wild buckwheat; PREEMERGENCE, 250 g/ha
  Plant response rating, Wild buckwheat: 100
Wild buckwheat; PREEMERGENCE, Rate 4 g/ha
  Plant response rating (0 to 100), Wild buckwheat: 20
Wild buckwheat; Rate 16 g/ha, POSTEMERGENCE
  Plant response rating (0 to 100), Wild buckwheat: 80
Wild buckwheat; Rate 16 g/ha, PREEMERGENCE
  Plant response rating (0 to 100), Wild buckwheat: 80
Sugar beet; POSTEMERGENCE, 62 g/ha
  Plant response rating, Sugar beet: 100
Sugar beet; POSTEMERGENCE, 250 g/ha
  Plant response rating, Sugar beet: 100
Sugar beet; POSTEMERGENCE, Rate 4 g/ha
  Plant response rating (0 to 100), Sugar beet: 100
Sugar beet; PREEMERGENCE, 250 g/ha
  Plant response rating, Sugar beet: 100
Sugar beet; PREEMERGENCE, Rate 4 g/ha
  Plant response rating (0 to 100), Sugar beet: 0
Sugar beet; Rate 16 g/ha, POSTEMERGENCE
  Plant response rating (0 to 100), Sugar beet: 100
Sugar beet; Rate 16 g/ha, PREEMERGENCE
  Plant response rating (0 to 100), Sugar beet: 20
wheat; POSTEMERGENCE, Rate 50 g/ha
  Plant response rating, Wheat: 4
wheat; POSTEMERGENCE, Rate 200 g/ha
  Plant response rating, Wheat: 5
wheat; PREEMERGENCE, Rate 50 g/ha
  Plant response rating, Wheat: 1
wheat; Rate 200 g/ha, PREEMERGENCE
  Plant response rating, Wheat: 2
Blackgrass [4]; POSTEMERGENCE, 62 g/ha
  Plant response rating, Blackgrass: 40
Blackgrass [4]; POSTEMERGENCE, 250 g/ha
  Plant response rating, Blackgrass: 70
Blackgrass [4]; PREEMERGENCE, 62 g/ha
  Plant response rating, Blackgrass: 20
Blackgrass [4]; PREEMERGENCE, 250 g/ha
  Plant response rating, Blackgrass: 40
Blackgrass [4]; PREEMERGENCE, Rate 4 g/ha
  Plant response rating (0 to 100), Blackgrass: 0
Blackgrass [4]; Rate 4 g/ha, POSTEMERGENCE
  Plant response rating (0 to 100), Blackgrass: 30
Blackgrass [4]; Rate 16 g/ha, POSTEMERGENCE
  Plant response rating (0 to 100), Blackgrass: 40
Blackgrass [4]; Rate 16 g/ha, PREEMERGENCE
  Plant response rating (0 to 100), Blackgrass: 0
cheatgrass; POSTEMERGENCE, Rate 50 g/ha
  Plant response rating (0 to 10 scale), Cheatgrass: 5
cheatgrass; POSTEMERGENCE, Rate 200 g/ha
  Plant response rating, Cheatgrass: 7
cheatgrass; PREEMERGENCE, Rate 50 g/ha
  Plant response rating, Cheatgrass: 6
cheatgrass; Rate 200 g/ha, PREEMERGENCE
  Plant response rating, Cheatgrass: 7
Bedstraw [5]; POSTEMERGENCE, Rate 50 g/ha
  Plant response rating (0 to 10 scale), Bedstraw: 9
Bedstraw [5]; POSTEMERGENCE, Rate 200 g/ha
  Plant response rating, Bedstraw: 9
Bedstraw [5]; PREEMERGENCE, Rate 50 g/ha
  Plant response rating, Bedstraw: 10
Bedstraw [5]; Rate 200 g/ha, PREEMERGENCE
  Plant response rating, Bedstraw: 10
Barley [6]; POSTEMERGENCE, 62 g/ha
  Plant response rating Barley Igri: 40
Barley [6]; POSTEMERGENCE, 250 g/ha
  Plant response rating Barley Igri: 50
Barley [6]; PREEMERGENCE, 62 g/ha
  Plant response rating Barley Igri: 0
Barley [6]; PREEMERGENCE, 250 g/ha
  Plant response rating Barley Igri: 20
Barley [6]; PREEMERGENCE, Rate 4 g/ha
  Plant response rating (0 to 100), Barley Igri: 0
Barley [6]; Rate 4 g/ha, POSTEMERGENCE
  Plant response rating (0 to 100), Barley Igri: 20
Barley [6]; Rate 16 g/ha, POSTEMERGENCE
  Plant response rating (0 to 100), Barley Igri: 20
Barley [6]; Rate 16 g/ha, PREEMERGENCE
  Plant response rating (0 to 100), Barley Igri: 0
Barley [7]; POSTEMERGENCE, Rate 50 g/ha
  Plant response rating (0 to 10 scale), Barley: 4
Barley [7]; POSTEMERGENCE, Rate 200 g/ha
  Plant response rating, Barley: 6
Barley [7]; PREEMERGENCE, Rate 50 g/ha
  Plant response rating, Barley: 0
Barley [7]; Rate 200 g/ha, PREEMERGENCE
  Plant response rating, Barley: 1
Bedstraw [8]; POSTEMERGENCE, 62 g/ha
  Plant response rating, Bedstraw: 100
Bedstraw [8]; POSTEMERGENCE, 250 g/ha
  Plant response rating, Bedstraw: 100
Bedstraw [8]; PREEMERGENCE, 62 g/ha
  Plant response rating, Bedstraw: 100
Bedstraw [8]; PREEMERGENCE, 250 g/ha
  Plant response rating, Bedstraw: 100
Bedstraw [8]; PREEMERGENCE, Rate 4 g/ha
  Plant response rating (0 to 100), Bedstraw: 20
Bedstraw [8]; Rate 4 g/ha, POSTEMERGENCE
  Plant response rating (0 to 100), Bedstraw: 70
Bedstraw [8]; Rate 16 g/ha, POSTEMERGENCE
  Plant response rating (0 to 100), Bedstraw: 80
Bedstraw [8]; Rate 16 g/ha, PREEMERGENCE
  Plant response rating (0 to 100), Bedstraw: 60
rice; POSTEMERGENCE, Rate 50 g/ha
  Plant response rating, Rice: 5
rice; POSTEMERGENCE, Rate 200 g/ha
  Plant response rating, Rice: 6
rice; PREEMERGENCE, Rate 50 g/ha
  Plant response rating, Rice: 0
rice; Rate 200 g/ha, PREEMERGENCE
  Plant response rating, Rice: 3
Duck salad; POSTEMERGENCE section, flood test, Rate 4 g/ha
  Plant response rating (0 to 100), Duck salad: 55
Duck salad; Rate 16 g/ha, under POSTEMERGENCE head (flood test species)
  Plant response rating (0 to 100), Duck salad: 60
Duck salad; 62 g/ha
  Plant response rating Duck salad: 70
Duck salad; 250 g/ha
  Plant response rating Duck salad: 90
rape; POSTEMERGENCE, Rate 50 g/ha
  Plant response rating, Rape: 9
rape; POSTEMERGENCE, Rate 200 g/ha
  Plant response rating, Rape: 10
rape; PREEMERGENCE, Rate 50 g/ha
  Plant response rating, Rape: 3
rape; Rate 200 g/ha, PREEMERGENCE
  Plant response rating, Rape: 10
